Key:
Format in all cases: cell-based
[1] = tested on: primary human hepatocytes; assay: RT-qPCR gene expression in primary human hepatocytes; conditions: PHH, MI891 5 μM
Protocol: Cryopreserved human hepatocytes from three donors were purchased from BioIVT (Westbury, New York, USA). The characteristics of the donors were as follows: donor 1, donor 2, donor 3 - person. PHHs were seeded in PHH medium supplemented with 10% fetal bovine serum at a density of 350,000 cells per well of rat tail collagen type I-coated 24-well plates (catalog number 354408, Corning, New York, USA). Cultivation medium was replaced with serum-free PHH medium 2 h later. […] Rifampicin, SPA70, and dimethyl sulfoxide (DMSO) were all purchased from Sigma-Aldrich (St. Louis, Missouri, USA, now part of Merck).
RT-qPCR was utilized to investigate gene expression in HepaRG and PHH. Total RNA was extracted from these cells using the phenol–chloroform method. The concentration of the isolated RNA was then measured using a Nanodrop 1000 spectro-photometer (Thermo Fisher Scientific).
Following RNA isolation, reverse transcription was performed to convert RNA into complementary DNA (cDNA). This step was carried out using the High-capacity cDNA reverse transcription kit (Cat. No. 4374966, ThermoFisher Scientific). The resulting cDNA served as the template for subsequent qPCR reactions.
The qPCR reactions were conducted on the QuantStudio 6 Flex Real-Time PCR System (ThermoFisher Scientific, Waltham, Mas-sachusetts). For these reactions, TaqMan Universal master mix II (Cat. No. 4440047, ThermoFisher Scientific) and TaqMan assays (FAM) utilized in this study are detailed in the Supporting Information. To quantify gene expression, the cycle threshold (Ct) values of the target genes were normalized to the Ct values of reference genes HPRT1 or GAPDH (HepaRG) or TBP (PHH). The normalized values were then expressed as fold changes (2−ΔΔCt) relative to the DMSO control at the specified time points, with the control set as 1.

[2] = molecular target: T1, LXRβ (Homo sapiens, UniProt P55055); assay: LXRβ luciferase reporter assay, agonistic and antagonistic setups; conditions: prototype ligand GW3965
T1 construct: expressed in transfected cells
Protocol: For the farnesoid X receptor (FXR) luciferase gene reporter assay, the full-length expression vector was paired with pFXRE-luc luciferase construct. The p1A1-luc construct was used in the aryl hydrocarbon receptor (AhR) assays with pRL-TK for normalization. Gal4-LXR-α/β, and Gal4-PPAR-γ constructs were used with the pGAL4 UAS-luc construct. For the VDR assay, expression vector pSG5-hVDR together with pVDRE-luc constructs was used. Firefly and Renilla luciferase activities were analyzed using a Dual reporter assay (Promega). For the nuclear receptor assays, prototype ligands were used at the following concentrations: Calcitriol for VDR (100 nM), GW3965 for LXRα and LXRβ (10 μM), 6-OCA for FXR (1 μM), fenofibrate for PPARα (10 μM), estradiol for ERα and β (10 μM), rosiglitazone for PPARγ (10 μM), 3-MC for AhR (5 μM), and TCPOBOP for mCAR (10 μM). Detailed descriptions and protocols are detailed in our recent publication. ,

[3] = molecular target: T2, PXR (Homo sapiens, UniProt O75469); assay: PXR-responsive CYP3A4 promoter luciferase reporter assay in HepG2, inverse agonist mode (basal activity); set-up: expressed in transfected cells; host or cells: HepG2; conditions: for PXR inverse agonism: decrease of basal activity in %: tested at 10 μM, DMSO (0.1%) = 100% basal activity
T2 sequence (O75469 1-434): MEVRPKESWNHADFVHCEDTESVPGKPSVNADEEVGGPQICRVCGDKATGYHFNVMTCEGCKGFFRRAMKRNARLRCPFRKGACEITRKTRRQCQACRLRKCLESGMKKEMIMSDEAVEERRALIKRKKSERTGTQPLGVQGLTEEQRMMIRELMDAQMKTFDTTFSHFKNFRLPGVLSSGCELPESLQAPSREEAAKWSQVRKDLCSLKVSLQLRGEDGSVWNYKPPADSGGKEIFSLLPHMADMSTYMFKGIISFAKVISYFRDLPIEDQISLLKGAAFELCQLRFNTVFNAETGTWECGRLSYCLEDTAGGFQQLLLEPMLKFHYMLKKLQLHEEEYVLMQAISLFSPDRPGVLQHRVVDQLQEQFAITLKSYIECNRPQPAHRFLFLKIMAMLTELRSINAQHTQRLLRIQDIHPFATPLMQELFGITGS
Protocol: Rhesus monkey, mouse, and rat PXR expression vectors (100 ng/well each) were also obtained from GenScript. […] Carlberg (University of Kuopio, Kuopio, Finland).
The cells were cultured in DMEM medium (Merck) supplemented with 10% fetal bovine serum.

[4] = molecular target: T3, GSPT1 (Homo sapiens, UniProt P15170); assay: Western blot of GSPT1 in HepaRG cells; conditions: 24 h
T3 construct: GSPT1 protein expression in HepaRG cells treated with different concentrations of MI1013 and MI1155 for 24 h; endogenous in cells; host or cells: HepaRG
Protocol: The harvested HepaRG cells were lysed in RIPA lysis buffer (Cat. no 89900, Thermo Scientific) containing Halt protease inhibitor cocktail inhibitors (Thermo Scientific). Protein concentration was measured using the Pierce BCA Protein Assay Kit (Cat. no. 23225, Thermo Scientific), samples were diluted in 4 × Laemmli sample buffer (Cat. no. 1610747, BioRad) supplemented with mercaptoethanol and heated at 95 °C for 5 min. Equal amounts of protein were loaded in 4–20% Mini-PROTEAN TGX Stain-Free Protein Gels (12 well. cat. no. 4561095 or 15 well, cat. no. 4568096, Bio-Rad), electrophorised, and transferred onto Trans-Blot Turbo Midi-size PVDF Membrane (cat. no. 1704273, Bio-Rad), and blocked with EveryBlot Blocking buffer for 10 min (cat. no. 12010020, Bio-Rad). […] Chemiluminescence signals were detected using SuperSignal West Femto Maximum Sensitivity Substrate (cat. no. 34096, Thermo Scientific) and visualized by the ChemiDoc MP Imaging system (Universal Hood III, #731BR02821, Bio-Rad), and the bands were quantified using β-actin (1:2000, recombinant rabbit conjugated monoclonal antibody (JF53-10), cat. no. MA5-32540, Invitrogen) as loading control with ImageJ (version 1.54g) software.

T3 sequence (Q96SW2 whole entry partner): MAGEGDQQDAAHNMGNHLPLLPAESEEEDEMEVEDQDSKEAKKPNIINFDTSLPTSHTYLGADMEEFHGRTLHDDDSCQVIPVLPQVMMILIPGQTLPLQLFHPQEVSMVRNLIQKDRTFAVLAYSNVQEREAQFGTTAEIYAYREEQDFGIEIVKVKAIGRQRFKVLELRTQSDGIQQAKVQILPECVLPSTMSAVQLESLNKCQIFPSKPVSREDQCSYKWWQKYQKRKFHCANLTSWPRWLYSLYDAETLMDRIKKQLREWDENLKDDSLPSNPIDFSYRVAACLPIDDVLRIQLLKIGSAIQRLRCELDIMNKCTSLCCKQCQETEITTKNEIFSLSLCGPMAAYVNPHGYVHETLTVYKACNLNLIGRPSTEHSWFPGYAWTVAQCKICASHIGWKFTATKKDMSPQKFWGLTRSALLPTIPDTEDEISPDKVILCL
T3 sequence (P15170 whole entry): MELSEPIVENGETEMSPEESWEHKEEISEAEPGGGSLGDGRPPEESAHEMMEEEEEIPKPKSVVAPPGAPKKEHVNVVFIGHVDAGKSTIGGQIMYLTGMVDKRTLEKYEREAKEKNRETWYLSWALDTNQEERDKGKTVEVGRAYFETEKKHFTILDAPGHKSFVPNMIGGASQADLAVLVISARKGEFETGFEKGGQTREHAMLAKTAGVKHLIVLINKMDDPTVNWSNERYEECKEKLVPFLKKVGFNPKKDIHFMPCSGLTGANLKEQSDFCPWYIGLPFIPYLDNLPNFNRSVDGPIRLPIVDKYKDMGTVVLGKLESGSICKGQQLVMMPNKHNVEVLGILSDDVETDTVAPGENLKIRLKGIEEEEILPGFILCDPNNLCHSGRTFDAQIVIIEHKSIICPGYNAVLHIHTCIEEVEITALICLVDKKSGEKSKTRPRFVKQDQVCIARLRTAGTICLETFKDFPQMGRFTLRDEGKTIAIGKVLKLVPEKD
T1 sequence (P55055 222-460 limits assumed): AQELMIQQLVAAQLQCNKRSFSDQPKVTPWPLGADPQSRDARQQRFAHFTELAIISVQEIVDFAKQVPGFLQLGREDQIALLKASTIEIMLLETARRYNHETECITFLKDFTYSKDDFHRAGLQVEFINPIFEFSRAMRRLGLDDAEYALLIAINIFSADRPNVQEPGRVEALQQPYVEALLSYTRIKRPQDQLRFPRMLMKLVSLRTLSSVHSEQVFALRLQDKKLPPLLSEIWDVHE

Row | Compound | CYP7A1, HMGCS2, PCK1 and MKI67 mRNA ([1]; in the presence and absence of rifampicin) | CYP2B6 mRNA ([1]; all donors) | CYP3A4 mRNA expression ([1]; three donors, rifampicin 10 μM, 48 h) | agonistic or antagonistic activity on LXRβ [2] | inhibition at 10 µM ([3]; HepG2, at 10 μM, read-out: maximal inhibition (inverse agonism)) [%] | IC50 ([3]; compound alone, HepG2, read-out: IC50, inverse agonistic activity) [µM] | PXR inverse agonism: decrease of basal activity in % [3] | PXR inverse agonism: decrease of basal activity in % ([3]; listed as 11 (MI891)) | GSPT1 degradation [4]
1 | NC(=O)c1cc(Cn2cc(-c3c(-c4ccc(Cl)cc4)nc4c(F)cc(F)cn34)nn2)ccc1Cl [Compound 11, 2-Chloro-5-((4-(2-(4-chlorophenyl)-6,8-difluoroimidazo[1,2-a]pyridin-3-yl)-1H-1,2,3-triazol-1-yl)methyl)-benzamide] | significant downregulation | may slightly upregulate | suppressed the expression of CYP3A4 mRNA and attenuated its induction by rifampicin | no significant agonistic or antagonistic activities | 68.8 ± 5.5 | 6.1 | (-68.84±5.53) % | –68.84 ± 5.53% | 
2 | N-(4-((1-(2,5-dimethoxyphenyl)-5-methyl-1H-1,2,3-triazol-4-yl)sulfonyl)phenyl)-3-(2-(2-(2-(4-(((2-(2,6-dioxopiperidin-3-yl)-1,3-dioxoisoindolin-4-yl)amino)methyl)-1H-1,2,3-triazol-1-yl)ethoxy)ethoxy)ethoxy)propenamide [Compound 36] |  |  |  |  |  |  |  |  | does not degrade

— paper PMC12305494, “Discovery of PXR Antagonist MI891 and PXR Degrader MI1013 and Their Roles in Hepatic Gene Regulation” (Journal of Medicinal Chemistry, 2025)
